Assay results reported in patent US20250235543A1, “MODIFIED PROTEINS AND PROTEIN DEGRADERS” (Cullgen (Shanghai), Inc., priority 2021, published 2025).
Read-outs that look alike come from different tables or passages of the source.

Columns and labels:
[1] = test system: cyclin D1; experiment: Cyclin D1 percentage degradation in Calu-1 cells (immunoblotting); type: cell-based; conditions: 200 nM, 16 hours
Description: (§1) […] A: protein percentage degradation >=80%; B: protein percentage degradation <80%, and >=50%; C: protein percentage degradation <50%, and >=30%; D: protein percentage degradation <30%.
(§2) Cultured cells were washed with cold PBS once and lysed in cold RIPA buffer supplemented with protease inhibitors and phosphatase inhibitors (Beyotime Biotechnology). The solutions were then incubated at 4° C. for 30 min with gentle agitation to fully lysed cells. Cell lysates were centrifuged at 13,000 rpm for 10 min at 4° C. and pellets were discarded. Total protein concentrations in the lysates were determined following BCA assays (Beyotime Biotechnology). Cell lysates were mixed with Laemmli loading buffer and heated at 99° C. for 5 min. Proteins were resolved on SDS-PAGE and visualized using Western ECL Substrate kits on a ChemiDoc MP Imaging system (Bio-Rad). Protein bands were quantitated using the Image Lab software provided by Bio-Rad.

[2] = target: T1, CDK4 (Homo sapiens, UniProt P11802); experiment: CDK4 percentage degradation in Calu-1 cells (immunoblotting); type: cell-based; conditions: read-out: CDK4 Degradation (200 nM)
T1 construct: endogenous in cells; host or cells: Calu-1
Description: as §1, §2

T1 sequence (P11802 2-303 limits assumed): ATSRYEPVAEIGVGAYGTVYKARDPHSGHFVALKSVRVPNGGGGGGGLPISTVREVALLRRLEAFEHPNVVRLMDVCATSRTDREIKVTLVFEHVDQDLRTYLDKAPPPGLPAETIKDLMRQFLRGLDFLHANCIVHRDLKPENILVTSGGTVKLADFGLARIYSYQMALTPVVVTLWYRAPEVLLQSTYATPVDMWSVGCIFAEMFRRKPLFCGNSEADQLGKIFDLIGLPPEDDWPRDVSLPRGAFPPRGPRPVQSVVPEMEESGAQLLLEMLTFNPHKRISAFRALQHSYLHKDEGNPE
T1 sequence (P24385 whole entry partner): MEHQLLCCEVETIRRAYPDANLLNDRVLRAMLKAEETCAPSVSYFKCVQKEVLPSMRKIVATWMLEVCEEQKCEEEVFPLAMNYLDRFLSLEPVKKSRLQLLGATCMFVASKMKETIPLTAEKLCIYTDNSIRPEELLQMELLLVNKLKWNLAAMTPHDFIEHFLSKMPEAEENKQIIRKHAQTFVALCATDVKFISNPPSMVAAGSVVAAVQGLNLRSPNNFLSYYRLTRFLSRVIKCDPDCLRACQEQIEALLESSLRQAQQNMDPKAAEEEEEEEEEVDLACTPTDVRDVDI
T1 sequence (Q16531 2-1140 limits assumed, further chain): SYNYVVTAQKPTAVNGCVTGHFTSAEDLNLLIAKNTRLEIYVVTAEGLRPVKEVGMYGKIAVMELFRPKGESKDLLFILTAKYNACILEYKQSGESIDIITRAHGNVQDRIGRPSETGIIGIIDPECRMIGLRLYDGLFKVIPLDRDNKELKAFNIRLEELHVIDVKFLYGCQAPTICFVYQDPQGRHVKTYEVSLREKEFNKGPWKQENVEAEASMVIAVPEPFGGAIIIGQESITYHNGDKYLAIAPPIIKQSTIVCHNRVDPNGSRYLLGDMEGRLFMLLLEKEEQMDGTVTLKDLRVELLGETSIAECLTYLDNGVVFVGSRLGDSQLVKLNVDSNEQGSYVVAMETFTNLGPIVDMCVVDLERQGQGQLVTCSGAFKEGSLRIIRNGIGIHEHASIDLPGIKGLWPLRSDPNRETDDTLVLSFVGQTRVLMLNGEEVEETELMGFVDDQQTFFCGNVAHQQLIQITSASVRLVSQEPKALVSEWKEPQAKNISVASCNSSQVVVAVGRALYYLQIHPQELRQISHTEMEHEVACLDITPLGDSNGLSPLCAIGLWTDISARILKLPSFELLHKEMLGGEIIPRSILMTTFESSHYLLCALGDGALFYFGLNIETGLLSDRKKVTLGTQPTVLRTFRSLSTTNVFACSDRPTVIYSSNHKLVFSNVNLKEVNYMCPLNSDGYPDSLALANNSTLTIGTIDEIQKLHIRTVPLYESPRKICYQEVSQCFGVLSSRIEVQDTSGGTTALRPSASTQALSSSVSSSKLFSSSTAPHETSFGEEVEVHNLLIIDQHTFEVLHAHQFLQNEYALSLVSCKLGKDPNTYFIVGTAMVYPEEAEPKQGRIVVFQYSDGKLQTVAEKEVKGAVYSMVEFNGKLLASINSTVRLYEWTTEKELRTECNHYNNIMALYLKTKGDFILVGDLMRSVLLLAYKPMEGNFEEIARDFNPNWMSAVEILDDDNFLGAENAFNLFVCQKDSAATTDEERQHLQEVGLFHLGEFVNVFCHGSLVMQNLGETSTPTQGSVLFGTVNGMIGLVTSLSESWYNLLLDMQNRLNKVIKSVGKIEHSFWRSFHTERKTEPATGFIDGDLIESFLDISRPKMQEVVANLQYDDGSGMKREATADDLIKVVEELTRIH

| inhibition at 0.2 µM ([2]; Calu-1 cells, 200 nM, 16 hours) [%] | Compound | CyclinD1 Degradation (200 nM) [1] | inhibition at 0.2 µM ([2]; Calu-1, 16 h) [%] |
| --- | --- | --- | --- |
| 30 to 50 | CC(=O)c1c(C)c2cnc(Nc3ccc(N4CCN(CC(=O)NCCOCCOCCOCCNC(=O)CNc5ccc(C(=O)Nc6ncc(C)s6)c(C)c5)CC4)cn3)nc2n(C2CCCC2)c1=O [CPD-018, 4-((17-(4-(6-((6-Acetyl-8-cyclopentyl-5-methyl-7-oxo-7,8-dihydropyrido[2,3-d]pyrimidin-2-yl)amino)pyridin-3-yl)piperazin-1-yl)-2,16-dioxo-6,9,12-trioxa-3,15-diazaheptadecyl)amino)-2-methyl-N-(5-methylthiazol-2-yl)benzamide] | C (protein percentage degradation <50%, and >=30%) | – |
| < 30 | CC(=O)c1c(C)c2cnc(Nc3ccc(N4CCN(CC(=O)NCCOCCOCCOCCOCCOCCNC(=O)COc5ccc(C(=O)Nc6ncc(C)s6)c(C)c5)CC4)cn3)nc2n(C2CCCC2)c1=O [CPD-019, 4-((23-(4-(6-((6-Acetyl-8-cyclopentyl-5-methyl-7-oxo-7,8-dihydropyrido[2,3-d]pyrimidin-2-yl)amino)pyridin-3-yl)piperazin-1-yl)-2,22-dioxo-6,9,12,15,18-pentaoxa-3,21-diazatricosyl)oxy)-2-methyl-N-(5-methylthiazol-2-yl)benzamide] | D (protein percentage degradation <30%) | – |
| < 30 | CC(=O)c1c(C)c2cnc(Nc3ccc(N4CCN(CC(=O)NCCCCCCCCCNC(=O)c5ccc(C(=O)Nc6ncc(C)s6)c(C)c5)CC4)cn3)nc2n(C2CCCC2)c1=O [CPD-024, N^4-(9-(2-(4-(6-((6-Acetyl-8-cyclopentyl-5-methyl-7-oxo-7,8-dihydropyrido[2,3-d]pyrimidin-2-yl)amino)pyridin-3-yl)piperazin-1-yl)acetamido)nonyl)-2-methyl-N^1-(5-methylthiazol-2-yl)terephthalamide] | D (protein percentage degradation <30%) | – |
| – | CC(=O)c1c(C)c2cnc(Nc3ccc(N4CCN(CC(=O)NCCOCCOCCOCCOCCOCCNc5ccc(C(=O)Nc6ccc(C)cc6)c(C)c5)CC4)cn3)nc2n(C2CCCC2)c1=O [CPD-025, 4-((1-(4-(6-((6-Acetyl-8-cyclopentyl-5-methyl-7-oxo-7,8-dihydropyrido[2,3-d]pyrimidin-2-yl)amino)pyridin-3-yl)piperazin-1-yl)-2-oxo-6,9,12,15,18-pentaoxa-3-azaicosan-20-yl)amino)-2-methyl-N-(p-tolyl)benzamide] | D (protein percentage degradation <30%) | < 30 |
| – | CC(=O)c1c(C)c2cnc(Nc3ccc(N4CCN(CC(=O)NCCOCCOCCOCCOCCOCCNc5ccc(C(=O)Nc6ccccc6)c(C)c5)CC4)cn3)nc2n(C2CCCC2)c1=O [CPD-027, 4-((1-(4-(6-((6-Acetyl-8-cyclopentyl-5-methyl-7-oxo-7,8-dihydropyrido[2,3-d]pyrimidin-2-yl)amino)pyridin-3-yl)piperazin-1-yl)-2-oxo-6,9,12,15,18-pentaoxa-3-azaicosan-20-yl)amino)-2-methyl-N-phenylbenzamide] | D (protein percentage degradation <30%) | < 30 |
| < 30 | CC(=O)c1c(C)c2cnc(Nc3ccc(N4CCN(CC(=O)NCCOCCOCCOCCOCCOCCNc5ccc(C(=O)Nc6ncc(F)s6)c(C)c5)CC4)cn3)nc2n(C2CCCC2)c1=O [CPD-028, 4-((1-(4-(6-((6-Acetyl-8-cyclopentyl-5-methyl-7-oxo-7,8-dihydropyrido[2,3-d]pyrimidin-2-yl)amino)pyridin-3-yl)piperazin-1-yl)-2-oxo-6,9,12,15,18-pentaoxa-3-azaicosan-20-yl)amino)-N-(5-fluorothiazol-2-yl)-2-methylbenzamide] | D (protein percentage degradation <30%) | – |
| < 30 | CC(=O)c1c(C)c2cnc(Nc3ccc(N4CCN(CC(=O)NCCOCCOCCOCCOCCOCCNc5ccc(C(=O)Nc6ncc(C7CC7)s6)c(C)c5)CC4)cn3)nc2n(C2CCCC2)c1=O [CPD-029, 4-((1-(4-(6-((6-Acetyl-8-cyclopentyl-5-methyl-7-oxo-7,8-dihydropyrido[2,3-d]pyrimidin-2-yl)amino)pyridin-3-yl)piperazin-1-yl)-2-oxo-6,9,12,15,18-pentaoxa-3-azaicosan-20-yl)amino)-N-(5-cyclopropylthiazol-2-yl)-2-methylbenzamide] | D (protein percentage degradation <30%) | – |
| 30 to 50 | COc1cnc(NC(=O)c2ccc(NCCOCCOCCOCCOCCOCCNC(=O)CN3CCN(c4ccc(Nc5ncc6c(C)c(C(C)=O)c(=O)n(C7CCCC7)c6n5)nc4)CC3)cc2C)s1 [CPD-030, 4-((1-(4-(6-((6-Acetyl-8-cyclopentyl-5-methyl-7-oxo-7,8-dihydropyrido[2,3-d]pyrimidin-2-yl)amino)pyridin-3-yl)piperazin-1-yl)-2-oxo-6,9,12,15,18-pentaoxa-3-azaicosan-20-yl)amino)-N-(5-methoxythiazol-2-yl)-2-methylbenzamide] | B (protein percentage degradation <80%, and >=50%) | – |
| < 30 | COC(=O)c1cnc(NC(=O)c2ccc(NCCOCCOCCOCCOCCOCCNC(=O)CN3CCN(c4ccc(Nc5ncc6c(C)c(C(C)=O)c(=O)n(C7CCCC7)c6n5)nc4)CC3)cc2C)s1 [CPD-032, Methyl 2-(4-((1-(4-(6-((6-acetyl-8-cyclopentyl-5-methyl-7-oxo-7,8-dihydropyrido[2,3-d]pyrimidin-2-yl)amino)pyridin-3-yl)piperazin-1-yl)-2-oxo-6,9,12,15,18-pentaoxa-3-azaicosan-20-yl)amino)-2-methylbenzamido)thiazole-5-carboxylate] | D (protein percentage degradation <30%) | – |
| < 30 | CC(=O)c1c(C)c2cnc(Nc3ccc(N4CCN(CC(=O)NCCOCCOCCOCCOCCOCCNc5ccc(C(=O)Nc6nc(-c7ccccc7)c(C)s6)c(C)c5)CC4)cn3)nc2n(C2CCCC2)c1=O [CPD-034] | D (protein percentage degradation <30%) | – |
| 30 to 50 | CC(=O)c1c(C)c2cnc(Nc3ccc(N4CCN(CC(=O)NCCCCCCCCCNC(=O)CNc5ccc(C(=O)Nc6ncc(C)s6)c(C)c5)CC4)cn3)nc2n(C2CCCC2)c1=O [CPD-035] | C (protein percentage degradation <50%, and >=30%) | – |
| < 30 | CC(=O)c1c(C)c2cnc(Nc3ccc(N4CCN(CC(=O)NCCCCCNC(=O)COc5ccc(C(=O)Nc6ncc(C)s6)c(C)c5)CC4)cn3)nc2n(C2CCCC2)c1=O [CPD-036, 4-(2-((5-(2-(4-(6-((6-Acetyl-8-cyclopentyl-5-methyl-7-oxo-7,8-dihydropyrido[2,3-d]pyrimidin-2-yl)amino)pyridin-3-yl)piperazin-1-yl)acetamido)pentyl)amino)-2-oxoethoxy)-2-methyl-N-(5-methylthiazol-2-yl)benzamide] | D (protein percentage degradation <30%) | – |
| < 30 | CC(=O)c1c(C)c2cnc(Nc3ccc(N4CCN(CC(=O)NCCCCCCCNC(=O)COc5ccc(C(=O)Nc6ncc(C)s6)c(C)c5)CC4)cn3)nc2n(C2CCCC2)c1=O [CPD-037, 4-(2-((7-(2-(4-(6-((6-Acetyl-8-cyclopentyl-5-methyl-7-oxo-7,8-dihydropyrido[2,3-d]pyrimidin-2-yl)amino)pyridin-3-yl)piperazin-1-yl)acetamido)heptyl)amino)-2-oxoethoxy)-2-methyl-N-(5-methylthiazol-2-yl)benzamide] | D (protein percentage degradation <30%) | – |
| < 30 | CC(=O)c1c(C)c2cnc(Nc3ccc(N4CCN(CC(=O)NCCCCCCCCCNC(=O)COc5ccc(C(=O)Nc6ncc(C)s6)c(C)c5)CC4)cn3)nc2n(C2CCCC2)c1=O [CPD-038, 4-(2-((9-(2-(4-(6-((6-Acetyl-8-cyclopentyl-5-methyl-7-oxo-7,8-dihydropyrido[2,3-d]pyrimidin-2-yl)amino)pyridin-3-yl)piperazin-1-yl)acetamido)nonyl)amino)-2-oxoethoxy)-2-methyl-N-(5-methylthiazol-2-yl)benzamide] | D (protein percentage degradation <30%) | – |
| < 30 | CC(=O)c1c(C)c2cnc(Nc3ccc(N4CCN(CC(=O)NCCOCCOCCNC(=O)COc5ccc(C(=O)Nc6ncc(C)s6)c(C)c5)CC4)cn3)nc2n(C2CCCC2)c1=O [CPD-039, 4-((14-(4-(6-((6-Acetyl-8-cyclopentyl-5-methyl-7-oxo-7,8-dihydropyrido[2,3-d]pyrimidin-2-yl)amino)pyridin-3-yl)piperazin-1-yl)-2,13-dioxo-6,9-dioxa-3,12-diazatetradecyl)oxy)-2-methyl-N-(5-methylthiazol-2-yl)benzamide] | D (protein percentage degradation <30%) | – |
| < 30 | CC(=O)c1c(C)c2cnc(Nc3ccc(N4CCN(CC(=O)NCCOCCOCCOCCNC(=O)COc5ccc(C(=O)Nc6ncc(C)s6)c(C)c5)CC4)cn3)nc2n(C2CCCC2)c1=O [CPD-040, 4-((17-(4-(6-((6-Acetyl-8-cyclopentyl-5-methyl-7-oxo-7,8-dihydropyrido[2,3-d]pyrimidin-2-yl)amino)pyridin-3-yl)piperazin-1-yl)-2,16-dioxo-6,9,12-trioxa-3,15-diazaheptadecyl)oxy)-2-methyl-N-(5-methylthiazol-2-yl)benzamide] | D (protein percentage degradation <30%) | – |
